Data on one compound can be found in PMC6156125, “Chemistry and Hypoglycemic Activity of GPR119 Agonist ZB-16” (Frontiers in Endocrinology, 2018).

Values after ≈ are worked out from the molar mass of the structure shown. Some results are limits rather than exact numbers.

A word on the IC50: it is the midpoint of a concentration-inhibition curve. Read a low IC50 as higher potency. As a reminder, the solubility is how much of the substance goes into solution per volume. A lower solubility goes with a poorly soluble substance.

The subject of data set [1] is male Wistar rats with streptozotocin-nicotinamide induced type 2 diabetes mellitus (STZ-NA T2D). Also on record: method as in PMID 28736546. The note with it: 1 mg/kg/day orally for 28 day, ref [11]; cited from earlier work.
Another data set deals with T1, CYP3A4 (Homo sapiens, UniProt P08684).
T1 construct: purchased Invitrogen Corporation, Carlsbad, CA, USA
The experiment in a line: CYP inhibition, Vivid CYP450 Screening Kit. Format: in vitro ADME. Particulars: 0.0046 to 10 μM tested. The protocol:
(§1) Briefly, the reaction was initiated by adding NADP^+ and a substrate converted to fluorescent derivates by specific CYP isozyme. The reaction was terminated by adding 1M Tris. The fluorescence of the reaction product, which was proportional to CYP isozyme activity, was measured. […] The minimal signal was defined as the signal obtained without enzyme incubation. The inhibitory action of test compounds on the CYP isozymes was expressed in terms of median inhibitory concentration (IC50).

In another data set the target is T2, CYP2C19 (Homo sapiens, UniProt P33261).
T2 construct: purchased Invitrogen Corporation, Carlsbad, CA, USA
The experiment in a line: CYP inhibition, Vivid CYP450 Screening Kit. It counts as in vitro ADME. Particulars: 0.0046 to 10 μM tested. Here is the method:
as §1

Another data set has as its target T3, CYP1A2 (Homo sapiens, UniProt P05177).
T3 construct: purchased Invitrogen Corporation, Carlsbad, CA, USA
T3 sequence (P05177 1-516): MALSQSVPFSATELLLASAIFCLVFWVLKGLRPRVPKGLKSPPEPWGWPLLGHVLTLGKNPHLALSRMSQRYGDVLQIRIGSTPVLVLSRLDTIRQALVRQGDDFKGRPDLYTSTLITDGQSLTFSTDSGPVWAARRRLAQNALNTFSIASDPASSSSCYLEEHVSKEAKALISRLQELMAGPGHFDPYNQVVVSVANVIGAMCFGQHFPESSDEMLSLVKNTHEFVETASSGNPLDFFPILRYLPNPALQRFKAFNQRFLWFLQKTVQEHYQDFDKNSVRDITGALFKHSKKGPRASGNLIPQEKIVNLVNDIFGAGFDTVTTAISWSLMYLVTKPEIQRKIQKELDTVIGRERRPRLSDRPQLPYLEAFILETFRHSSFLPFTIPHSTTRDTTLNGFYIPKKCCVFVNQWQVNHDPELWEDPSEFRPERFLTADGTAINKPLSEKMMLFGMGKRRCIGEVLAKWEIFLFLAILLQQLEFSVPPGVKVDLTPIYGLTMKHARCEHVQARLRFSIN
The experiment in a line: CYP inhibition, Vivid CYP450 Screening Kit. Format: in vitro ADME. The note with it: 0.0046 to 10 μM tested. Here is the method: as §1

A further data set concerns the target T4, CYP2D6 (Homo sapiens, UniProt P10635).
T4 construct: purchased Invitrogen Corporation, Carlsbad, CA, USA
Briefly: CYP inhibition, Vivid CYP450 Screening Kit. Format: in vitro ADME. The note with it: 0.0046 to 10 μM tested. Here is the method: as §1

The target in another data set is T5, CYP2C9 (Homo sapiens, UniProt P11712).
T5 construct: purchased Invitrogen Corporation, Carlsbad, CA, USA
Briefly: CYP inhibition, Vivid CYP450 Screening Kit. Format: in vitro ADME. Particulars: 0.0046 to 10 μM tested. Here is the method:
as §1

The next data set can be described thus: physchem. The note with it: Britton-Robinson universal buffer, kinetic from dmso stock.
The subject of data set [2] is rats with streptozotocin-nicotinamide (STZ-NA) induced T2D. The experiment in a line: Hypoglycemic activity after continuous (28 days) oral administration in T2D rat model, OGTT. It counts as in vivo. Here is the method:
Procedures were performed in 40 female Wistar rats weighing 250–280 g. Streptozotocin-nicotinamide-induced rat model of T2D was used ([24], [25]). Briefly, streptozotocin (Sigma, St. Louis, MO, USA) was administered i.p. to overnight fasted rats (65 mg/kg in 100 mmol/l citrate buffer, Ph 4.5). Nicotinamide (Sigma, St. Louis, MO, USA) (230 mg/kg) dissolved in saline was administered i.p. 15 min before streptozotocin. STZ-NA T2D had been confirmed 72 h after in rats with blood glucose levels in a range 9–14 mmol/l measured in fasting (6 h) conditions. […] Following the continuous oral administration of sitagliptin (10 mg/kg), ZB-16 (1 mg/kg) or saline during 28 days STZ-NA T2D confirmation the fasting blood glucose levels were measured, and oral glucose tolerance test (OGTT) was performed. For OGTT rats received an oral dose of […] glucose dissolved in saline; blood glucose levels were monitored every 30 min for 2 h after glucose administration. Sitagliptin dose was chosen in accordance with published data ([26]).

The next data set relates to HepG2 cell culture. The experiment in a line: Cell toxicity in vitro, Cell Titer Glo cell viability (ATP). Particulars: Figure 3. Format: cell-based, human. Here is the method: Cell viability was estimated by the quantity of ATP produced by the HepG2 cell culture, derived from human liver hepatocellular carcinoma. Experiments were performed using a Cell Titer Glo Cell Viability (Promega) test system ([17]). Tubercidin, an inhibitor of various cellular metabolic processes, including RNA processing, nucleic acid synthesis, protein synthesis, and methylation of tRNA through intracellular incorporation into nucleic acids, was used as a positive control ([18]). Median inhibitory concentration (IC50) was used as a quantitative parameter to evaluate cell toxicity. To evaluate inhibition effectiveness (% Inh), the following formula was used: % Inh = [(Lpos − Lexp)/(Lpos − Lneg)] ^* 100%, where Lpos is the positive control (luminescence in cells with no compound); Lneg is the negative control (luminescence in cells containing medium but no cells); and Lexp is the luminescence in cells containing the compound at a certain concentration. IC50 values were calculated using Prism 5 and the criteria for minimization of the experimental points squares deviation from the theoretically calculated curve algorithm.
On the technique in general: ATP-based viability assays read luminescence as a measure of living cells.

T1 sequence (P08684 whole entry): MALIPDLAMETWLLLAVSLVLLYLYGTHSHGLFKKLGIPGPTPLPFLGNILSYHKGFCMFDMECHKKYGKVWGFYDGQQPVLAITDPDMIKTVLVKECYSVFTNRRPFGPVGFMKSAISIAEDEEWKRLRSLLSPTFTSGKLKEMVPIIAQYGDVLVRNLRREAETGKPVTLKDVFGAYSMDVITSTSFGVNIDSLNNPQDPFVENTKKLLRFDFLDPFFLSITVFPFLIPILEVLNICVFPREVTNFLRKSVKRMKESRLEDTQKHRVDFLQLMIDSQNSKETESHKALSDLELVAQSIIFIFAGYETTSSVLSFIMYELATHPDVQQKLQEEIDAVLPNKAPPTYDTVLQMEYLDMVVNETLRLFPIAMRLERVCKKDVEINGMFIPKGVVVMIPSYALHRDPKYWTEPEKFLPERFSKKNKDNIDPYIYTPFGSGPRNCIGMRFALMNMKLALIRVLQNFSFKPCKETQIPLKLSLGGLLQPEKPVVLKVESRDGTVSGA
T4 sequence (P10635 whole entry): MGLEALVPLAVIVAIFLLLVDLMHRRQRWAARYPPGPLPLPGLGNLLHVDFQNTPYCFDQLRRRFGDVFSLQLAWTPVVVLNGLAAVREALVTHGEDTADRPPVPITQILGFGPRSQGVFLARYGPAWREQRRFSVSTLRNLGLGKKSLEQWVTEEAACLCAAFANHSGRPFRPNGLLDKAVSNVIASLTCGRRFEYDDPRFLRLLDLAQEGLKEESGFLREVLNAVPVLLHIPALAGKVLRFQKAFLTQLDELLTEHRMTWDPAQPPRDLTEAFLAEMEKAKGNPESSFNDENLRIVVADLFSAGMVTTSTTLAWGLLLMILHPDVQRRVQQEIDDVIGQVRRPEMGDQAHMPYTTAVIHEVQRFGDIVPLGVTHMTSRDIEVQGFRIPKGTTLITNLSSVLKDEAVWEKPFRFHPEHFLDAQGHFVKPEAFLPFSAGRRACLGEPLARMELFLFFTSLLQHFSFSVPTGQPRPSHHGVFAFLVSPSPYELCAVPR
T5 sequence (P11712 whole entry): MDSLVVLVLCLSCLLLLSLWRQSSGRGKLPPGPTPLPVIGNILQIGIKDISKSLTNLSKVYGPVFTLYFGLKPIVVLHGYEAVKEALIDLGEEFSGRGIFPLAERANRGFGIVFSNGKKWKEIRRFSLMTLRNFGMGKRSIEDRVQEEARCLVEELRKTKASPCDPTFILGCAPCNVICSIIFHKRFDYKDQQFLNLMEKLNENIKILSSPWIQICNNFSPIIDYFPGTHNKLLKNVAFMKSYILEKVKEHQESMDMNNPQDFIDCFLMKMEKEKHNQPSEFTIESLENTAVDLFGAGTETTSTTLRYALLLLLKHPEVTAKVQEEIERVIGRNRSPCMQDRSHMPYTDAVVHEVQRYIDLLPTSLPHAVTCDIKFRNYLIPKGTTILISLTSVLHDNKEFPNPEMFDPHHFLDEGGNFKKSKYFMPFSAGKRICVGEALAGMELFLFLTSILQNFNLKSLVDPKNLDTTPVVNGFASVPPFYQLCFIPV
T2 sequence (P33261 whole entry): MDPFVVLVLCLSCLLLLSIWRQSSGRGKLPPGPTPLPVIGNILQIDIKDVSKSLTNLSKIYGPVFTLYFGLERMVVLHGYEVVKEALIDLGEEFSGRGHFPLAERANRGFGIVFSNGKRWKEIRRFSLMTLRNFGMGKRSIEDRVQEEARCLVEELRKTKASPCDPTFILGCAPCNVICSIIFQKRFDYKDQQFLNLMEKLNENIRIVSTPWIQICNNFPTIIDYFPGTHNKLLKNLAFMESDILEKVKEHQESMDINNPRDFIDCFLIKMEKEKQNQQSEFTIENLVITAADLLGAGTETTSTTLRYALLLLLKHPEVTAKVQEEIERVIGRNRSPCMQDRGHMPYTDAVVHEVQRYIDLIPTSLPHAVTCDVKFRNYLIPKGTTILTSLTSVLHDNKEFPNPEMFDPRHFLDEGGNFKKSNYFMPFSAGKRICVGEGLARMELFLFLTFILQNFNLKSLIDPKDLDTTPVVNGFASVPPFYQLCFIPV

Consider `O=S1(=O)COc2cc(-c3ccc(OCC4CCN(c5ncc(Cl)cn5)CC4)c(F)c3)ccc21` [ZB-16], for which the “blood glucose levels under fasting conditions” value in data set [1] is reported as “decreased”. Besides, in [1], the glucose utilization entry is “improved”. Also, the “stimulated secretion of GLP-1 and insulin” value in data set [1] was “increase”. For the same compound, the IC50 against CYP3A4, at CYP2C19, on CYP1A2, against CYP2D6 and at CYP2C9 was over 10 µM throughout. For the same compound, the solubility in the data set “physchem” (pH 2, aqueous buffer) was 52 µM (≈ 25.5 µg/mL); in “physchem” (pH 4, aqueous buffer), under 3 µM; in the data set “physchem” (pH 7, aqueous buffer), 4 µM (≈ 1.96 µg/mL). Also, the “reduction in the area under the glucose concentration-time curve compared to the control group” value in data set [2] (OGTT on day 28, 1 mg/kg/day oral) came out at 22%. Further, the “blood glucose levels lower than in saline group” value in [2] (OGTT on day 28, 1 mg/kg/day oral, 30 min after oral glucose (3 mg/kg)) is listed as 27%. In data set [2] (OGTT on day 28, 1 mg/kg/day oral, two hours after glucose administration), the “mean blood glucose level” value came out at 9.1 ± 0.37 mmol/L. Further, in data set [2] (daily oral ZB-16 1 mg/kg or sitagliptin 10 mg/kg for 28 days, STZ-NA T2D), the blood glucose levels result is given as “reduction”. In addition, the “effect on HepG2 cell culture viability” value with HepG2 cell culture is “no effect”.
